Measurements as given in US20250282741A1, “NOVEL BENZOFURANYL HYDROXYPHENYL METHANONE DERIVATIVE COMPOUND OR PHARMACEUTICALLY ACCEPTABLE SALT THEREOF” (INNOVO THERAPEUTICS INC., priority 2021, published 2025).

How the values were obtained:
LX-2 cells = assay: Sirius red assay, hepatic stellate cell fibrosis (TGF-beta treated LX-2); type: cell-based; conditions: Homo sapiens; for EC50: LX-2, collagen production, TGF-beta 10 ng/ml, 24 hours; for inhibition at 10 µM: LX-2 cells, collagen production
Protocol: (§1) Liver stellate LX-2 (Elabscience C H), lung epithelial A549 (ATCC US), or skin KEL FIB (ATCC, US) cells were cultured in 24-well tissue culture plates for 18 hours, followed by TGF-beta 10 ng/ml treatment, and then incubated with test compound for 24 hours. Cells were washed with PBS, fixed with Bouin's solution, and washed twice with distilled water. The fixed cells were stained with Sirius red for 2 hours to observe cellular morphological changes, and then washed with 0.01 N HCl solution. Collagen-bound Sirius red was extracted with 0.1 N NaOH solution, which was then quantified at a wavelength of 570 nm. The inhibitory efficacy of each compound on collagen production was shown as a percentage or EC50.

[1] = system: MCP-1 (Monocyte chemoattractant protein-1) secretion; assay: Inhibition of MCP-1 secretion in LX-2 cells (ELISA); type: cell-based; conditions: Homo sapiens, TGF-beta 10 ng/ml, 30 to 1 μM test compound, 24 hours, read-out: LX-2 cell EC50 (MCP-1 secretion)
Protocol: LX-2 cells, a hepatic stellate cell line, were cultured in 24-well tissue culture plates for 18 hours, followed by TGF-beta 10 ng/ml treatment, and then incubated with 30 to 1 μM of the test compound for 24 hours. The secreted MCP-1 protein in the cell culture medium was quantified using ELISA reagents (RnD, USA). The EC50 value was calculated from the quantitative value of MCP-1 resulting from the treatment of each test compound using prism software (Graphpad, ver 9.4 USA).

HSP47 = HSP47 (Homo sapiens (Human), UniProt P50454); assay: Evaluation of HSP47 activity (inhibition of collagen fibril formation, 340 nm); type: biochemical; conditions: for inhibition at 100 µM: HSP47 inhibition; for EC50: HSP47 9.45 μg/ml, collagen fibril formation, test compound 100 μM to 1 μM
HSP47, sequence (P50454 19-418, species assumed): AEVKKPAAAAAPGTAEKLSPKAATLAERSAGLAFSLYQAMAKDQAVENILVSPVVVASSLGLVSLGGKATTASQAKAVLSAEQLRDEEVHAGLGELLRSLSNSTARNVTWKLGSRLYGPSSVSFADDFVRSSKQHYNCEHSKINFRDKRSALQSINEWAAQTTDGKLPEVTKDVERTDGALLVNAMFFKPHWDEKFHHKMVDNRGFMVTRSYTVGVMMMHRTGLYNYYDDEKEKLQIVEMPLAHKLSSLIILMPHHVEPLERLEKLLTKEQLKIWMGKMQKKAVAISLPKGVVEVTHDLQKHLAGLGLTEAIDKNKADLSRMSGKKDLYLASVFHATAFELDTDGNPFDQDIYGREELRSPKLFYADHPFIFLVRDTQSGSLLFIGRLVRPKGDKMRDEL
Protocol: Fibrils were formed by adding 180 ul of phosphate-buffered saline (PBS, pH 7.4) solution to 20 ul of collagen dissolved in acidic solution (collagen solution, UK), which was measured at a wavelength of 340 nm. HSP47 (GenScript US) was added at a concentration of 9.45 μg/ml to assess HSP47 activity as the degree to which it inhibits fibril formation. Test compound was added with concentrations of 100 μM to 1 μM and the inhibitory activity of HSP47 was calculated as a percentage or EC50.

A549 cells = assay: Sirius red assay, lung epithelial cell fibrosis (TGF-beta treated A549); type: cell-based; conditions: Homo sapiens, collagen production
Protocol: as §1

Row | EC50 (LX-2 cells) [µM] | EC50 [1] [µM] | inhibition at 100 µM (HSP47) [%] | EC50 (HSP47) [µM] | Compound | inhibition at 10 µM (LX-2 cells) [%] | inhibition at 10 µM (A549 cells) [%] | inhibition at 30 µM (A549 cells) [%]
1 | 3 | 4.61 | 23.3 | – | CCc1oc2cccc(Cl)c2c1C(=O)c1cc(Br)c(O)c(Br)c1 [Example 1, (4-chloro-2-ethylbenzofuran-3-yl)(3,5-dibromo-4-hydroxyphenyl)methanone] | – | – | –
2 | – | – | – | 40.8 | CCc1oc2ccc(C)cc2c1C(=O)c1cc(Br)c(O)c(Br)c1 [Example 2, (3,5-dibromo-4-hydroxyphenyl)(2-ethyl-5-methylbenzofuran-3-yl)methanone] | 65.1 | – | –
3 | 1.37 | 2.21 | 26.3 | – | CCc1ccc2c(C(=O)c3cc(Br)c(O)c(Br)c3)c(CC)oc2c1 [Example 3, (3,5-dibromo-4-hydroxyphenyl)(2,6-diethylbenzofuran-3-yl)methanone] | – | – | –
4 | 5.55 | 8.69 | – | 73 | CCc1oc2c(C)cccc2c1C(=O)c1cc(Br)c(O)c(Br)c1 [Example 4, (3,5-dibromo-4-hydroxyphenyl)(2-ethyl-7-methylbenzofuran-3-yl)methanone] | – | – | –
5 | 4.73 | 3.56 | – | 37.8 | CCc1oc2c(Cl)cccc2c1C(=O)c1cc(Br)c(O)c(Br)c1 [Example 5, (7-chloro-2-ethylbenzofuran-3-yl)(3,5-dibromo-4-hydroxyphenyl)methanone] | – | – | –
6 | 17.1 | 10.2 | – | 80.8 | CCc1oc2c(Br)cccc2c1C(=O)c1cc(Br)c(O)c(Br)c1 [Example 6, (7-bromo-2-ethylbenzofuran-3-yl)(3,5-dibromo-4-hydroxyphenyl)methanone] | – | – | –
7 | 10.9 | 2.85 | 18.1 | – | CCc1oc2c(F)cccc2c1C(=O)c1cc(Br)c(O)c(Br)c1 [Example 7, (3,5-dibromo-4-hydroxyphenyl)(2-ethyl-7-fluorobenzofuran-3-yl)methanone] | – | – | –
8 | – | – | – | 37.1 | CCc1oc2ccc(C)cc2c1C(=O)c1cc(I)c(O)c(I)c1 [Example 8, (2-ethyl-5-methylbenzofuran-3-yl)(4-hydroxy-3,5-diiodophenyl)methanone] | 67.9 | – | –
9 | – | – | 41.8 | – | CCc1oc2cc(C)ccc2c1C(=O)c1cc(I)c(O)c(I)c1 [Example 10, (2-ethyl-6-methylbenzofuran-3-yl)(4-hydroxy-3,5-diiodophenyl)methanone] | 128 | – | –
10 | – | – | 69.2 | – | CCc1oc2cc(Br)ccc2c1C(=O)c1cc(I)c(O)c(I)c1 [Example 11, (6-bromo-2-ethylbenzofuran-3-yl)(4-hydroxy-3,5-diiodophenyl)methanone] | 78.3 | – | –
11 | – | – | – | 49.1 | CCc1oc2c(C)cccc2c1C(=O)c1cc(I)c(O)c(I)c1 [Example 13, (2-ethyl-7-methylbenzofuran-3-yl)(4-hydroxy-3,5-diiodophenyl)methanone] | – | 65.2 | 72.5
12 | – | – | – | – | CCc1oc2c(Cl)cccc2c1C(=O)c1cc(I)c(O)c(I)c1 [Example 14, (7-chloro-2-ethyl-3-yl)(4-hydroxy-3,5-diiodophenyl)methanone] | 90.6 | – | –
13 | – | – | – | 48.3 | CCc1oc2c(Br)cccc2c1C(=O)c1cc(I)c(O)c(I)c1 [Example 15, (7-bromo-2-ethylbenzofuran-3-yl)(4-hydroxy-3,5-diiodophenyl)methanone] | – | – | 96.2
14 | – | – | – | 31.4 | O=C(c1cc(Br)c(O)c(Br)c1)c1coc2ccccc12 [Example 16, benzofuran-3-yl(3,5-dibromo-4-hydroxyphenyl)methanone] | – | 64.3 | –
15 | 3.7 | 3.73 | 19.5 | – | Cc1oc2cc(Br)ccc2c1C(=O)c1cc(Br)c(O)c(Br)c1 [Example 17, (6-bromo-2-methylbenzofuran-3-yl)(3,5-dibromo-4-hydroxyphenyl)methanone] | – | – | –
16 | 4.67 | 3.01 | 75.2 | – | Cc1oc2ccc(Br)cc2c1C(=O)c1cc(Br)c(O)c(Br)c1 [Example 18, (5-bromo-2-methylbenzofuran-3-yl)(3,5-dibromo-4-hydroxyphenyl)methanone] | – | – | –
17 | 4.02 | 2.1 | – | 49.2 | CCc1ccc2oc(CC)c(C(=O)c3cc(Br)c(O)c(Br)c3)c2c1 [Example 20, (3,5-dibromo-4-hydroxyphenyl)(2,5-diethylbenzofuran-3-yl)methanone] | – | – | –
18 | 3.07 | 2.8 | – | 5.52 | CCc1oc2c(CC)cccc2c1C(=O)c1cc(Br)c(O)c(Br)c1 [Example 21, (3,5-dibromo-4-hydroxyphenyl)(2,7-diethylbenzofuran-3-yl)methanone] | – | – | –
19 | 3.39 | – | – | 71 | CCc1oc2cccc(C)c2c1C(=O)c1cc(Br)c(O)c(Br)c1 [Example 23, (3,5-dibromo-4-hydroxyphenyl)(2-ethyl-4-methylbenzofuran-3-yl)methanone] | – | – | –
20 | 3.6 | – | – | 104 | CCc1oc2cccc(F)c2c1C(=O)c1cc(Br)c(O)c(Br)c1 [Example 24, (3,5-dibromo-4-hydroxyphenyl)(2-ethyl-4-fluorobenzofuran-3-yl)methanone] | – | – | –
